US11413266B2, “Use of cannabinoids in the treatment of inflammatory skin diseases” (GW Pharma Limited, priority 2015, dated 2022)

Columns and labels:
[1] = test system: IL8; assay: UVB-induced IL8 release in HaCaT keratinocytes, ELISA; type: cell-based, human; details: 0.3 μM
[2] = test system: human epidermal keratinocytes; assay: Summary score, TLR3-induced inflammation model (microbial infection-induced dermatitis); type: cell-based; details: sum of +1 anti-inflammatory, 0 no effect, −1 pro-inflammatory, Table 1
[3] = test system: IL6; assay: UVB-induced IL6 mRNA expression in HaCaT keratinocytes, RT-qPCR; type: cell-based, human; details: 0.3 μM
[4] = test system: HPV-Ker keratinocytes; assay: Summary score, SEB/TSLP-induced inflammation model (atopic dermatitis); type: cell-based, human; details: sum of +1 anti-inflammatory, 0 no effect, −1 pro-inflammatory, Table 3
[5] = test system: IL8; assay: UVB-induced IL8 mRNA expression in HaCaT keratinocytes, RT-qPCR; type: cell-based, human
[6] = test system: MCP-2; assay: MCP-2 ELISA in supernatants of poly-(I:C)-stimulated HaCaT cells; type: cell-based, human
[7] = test system: HaCaT cells; assay: Cell viability of HaCaT cells (MTT); type: cell-based, human; details: 20 μM
Procedure: Cell viability was measured after 6 h in HaCaT cells treated with CBD (20 μM) or vehicle by using the 3-(4,5-dimethylthiazol-2yl)-2,5-diphenyl tetrazolium bromide (MTT) colorimetric assay.
Briefly, after 6 h HaCaT cells were incubated with MTT (5 mg·ml-1) for 3 h at 37° C. in 5% CO2. After 3 h HaCaT cells were lysed with DMSO and incubated for 6 h at 37° C. in 5% CO2.
Absorbance was measured at 630 nm. Results are expressed as % of cell viability, where optical density values from vehicle-treated cells were defined as 100% of cell viability.

[8] = test system: human epidermal keratinocytes; assay: Summary score, UVB-induced inflammation model (solar dermatitis); type: cell-based; details: sum of +1 anti-inflammatory, 0 no effect, −1 pro-inflammatory, Table 2
[9] = test system: AEA; assay: AEA levels in poly-(I:C)-stimulated HaCaT cells (LC-APCI-MS); type: cell-based, human; details: CBD 20 μM, 6 h
Procedure: (§1) HaCaT cells were plated into six-well culture plates at a cell density of 9×10^5 cells per well, and after 1 day were stimulated with poly-(I:C) (100 μg·ml-1) and treated with CBD (20 μM) or vehicle, and incubated for 6 h at 37° C. in 5% CO2.
(§2) After 6 h the resulting cells and supernatants were subjected to measurement of endocannabinoids such as N-arachidonoyl-ethanolamine (anandamide, AEA) and 2-arachidonoyl-glycerol (2-AG), and related N-acylethanolamines such as PEA and N oleoylethanolamine (OEA).
(§3) Cells and supernatants were homogenized in a solution of chloroform/methanol/Tris-HCl 50 mM pH 7.4 (2:1:1 by vol.) containing 10 pmol of [2H]8-AEA, and 5 pmol of [2H]5-2-AG, [2H]4-PEA and [2H]2-OEA as internal deuterated standards. The lipid-containing organic phase was pre-purified by open-bed chromatography on silica gel, and fractions obtained by eluting the column with a solution of chloroform/methanol (90:10 by vol.) were analyzed by liquid chromatography-atmospheric pressure chemical ionization-mass spectrometry (LC-APCI-MS) by using a Shimadzu HPLC apparatus (LC-10ADVP) coupled to a Shimadzu (LCMS-2020) quadrupole MS via a Shimadzu APCI interface. […]

[10] = test system: OEA; assay: OEA levels in poly-(I:C)-stimulated HaCaT cells (LC-APCI-MS); type: cell-based, human; details: CBD 20 μM, 6 h
Procedure: as §1, §2, §3

[11] = test system: IL6; assay: UVB-induced IL6 release in HaCaT keratinocytes, ELISA; type: cell-based, human; details: 3 μM
[12] = test system: 2-AG; assay: 2-AG levels in poly-(I:C)-stimulated HaCaT cells (LC-APCI-MS); type: cell-based, human; details: CBD 20 μM, 6 h
Procedure: as §1, §2, §3

[13] = test system: IL8; assay: PolyIC-induced IL8 release in NHEK keratinocytes, ELISA; type: cell-based, human; details: NHEKs; concentration not singled out (0.3 and 3 μM tested)
[14] = test system: human sebocytes; details: Oláh et al., 2014; cited from earlier work
[15] = test system: DNFB-induced allergic contact dermatitis (ACD); assay: DNFB-induced allergic contact dermatitis (ACD) in mice, ear swelling; type: in vivo
Procedure: A total of 10 animals per group were used in the experiments described here.
Briefly, DNFB was diluted in acetone/olive oil (4:1 by vol.) immediately before use and eight-ten week-old female C57BL/6J mice were sensitized by painting 50 μl of 0.2% DNFB on the shaved abdomen on two consecutive days. Then, mice were challenged by painting 10 μl of 0.3% DNFB on both sides of one ear on day 5.
Ear swelling was measured 24, 48 and 72 h after this first challenge by measuring the difference in ear thickness between the unchallenged and the challenged ear using an engineer's micrometer. CBD (2.5, -5- and 10 mg·kg-1) was administered intraperitoneally (i.p.) on day 5 (the day of the first challenge with DNFB), 6 and, 7 after the initial sensitization with DNFB. CBD was dissolved in DMSO and Tween-20 1%.
For the determination of MCP-2, endocannabinoids, PEA and OEA, group means were compared using the one-way ANOVA followed by Newman-Keuls multiple comparison test or the Student's t-test. For the determination of cell viability, group means were compared using the Student's t-test. All determinations were performed at least in triplicate. For the determination of ear thickness, group means were compared using the one-way ANOVA followed by Tukey-Kramer multiple comparison test (n=10).

[16] = test system: IL6; assay: PolyIC-induced IL6 release in NHEK keratinocytes, ELISA; type: cell-based, human; details: NHEKs; concentration not singled out (0.3 and 3 μM tested)

Structure (SMILES): C=C(C)[C@@H]1CCC(C)=C[C@H]1c1c(O)cc(CCCCC)cc1O [CBD, Cannabidiol]
- UVB-upregulated IL8 (ELISA) [1]: anti-inflammatory effects
- SCORE ([2]; 0.3 μM): 5
- SCORE ([2]; 3 μM): 8
- UVB-upregulated IL6 (RT-qPCR) [3]: anti-inflammatory effects
- SCORE ([4]; 0.3 μM): −1
- SCORE ([4]; 3 μM): 1
- UVB-upregulated IL8 (RT-qPCR) ([5]; 0.3 μM): anti-inflammatory effects
- UVB-upregulated IL8 (RT-qPCR) ([5]; 3 μM): pro-inflammatory effects
- MCP-2 production ([6]; 20 μM, poly-(I:C)-stimulated HaCaT, 6 h): maximum effect
- MCP-2 protein levels ([6]; 1, 5, 10 and 20 μM, poly-(I:C) 100 μg·ml-1, 6 h, vs vehicle): strong concentration-dependent reduction
- MCP-2 protein levels ([6]; compound alone, 20 μM, absence of poly-(I:C), vs vehicle-treated HaCaT, data not shown): no significant variation
- potency in the inhibition of MCP-2 chemokine production relative to other phytocannabinoids tested ([6]; poly-(I:C)-stimulated keratinocytes): more potent
- cytotoxicity [7]: not cytotoxic
- SCORE ([8]; 0.3 μM): 5
- SCORE ([8]; 3 μM): 1
- AEA levels, increase compared to poly-(I:C)-stimulated HaCaT cells [9]: −2.7 fold
- AEA levels, increase compared to vehicle-treated HaCaT cells [9]: −8 fold
- OEA levels [10]: No consistent effect
- UVB-upregulated IL6 (ELISA) [11]: anti-inflammatory effects
- 2-AG levels [12]: No consistent effect
- PolyIC-induced elevated release of IL8 [13]: dose-dependent suppression
- anti-acne effects [14]: exerted anti-acne effects
- ear thickness ([15]; 2.5 mg·kg-1 i.p.): did not show any statistically significant effect
- ear thickness ([15]; 5 mg·kg-1 i.p.): did not show any statistically significant effect
- ear thickness ([15]; 10 mg·kg-1 i.p. on day 5, 6 and 7, 48 h after first challenge, vs control mice): reduced
- ear thickness ([15]; 10 mg·kg-1 i.p. on day 5, 6 and 7, 72 h after first challenge, vs control mice): reduced
- PolyIC-induced elevated release of IL6 [16]: dose-dependent suppression
